Source: US20250011368A1, “DLL3 TARGETING PEPTIDES AND CONSTRUCTS THEREOF” (MARIANA ONCOLOGY INC., priority 2023, published 2025)
Numbered stars: 1 amine (or outer) side, 2 acyl side, 3 side chain; on linkers, the order of the positions; unused ones are H or OH. Bridge positions count the residues as written; N and C are the ends. Square brackets hold non-standard residues; d marks the D form. Peptide text beside a SMILES is read from it. * marks the point of attachment. Ala(piperidin-4-yl) = O=C([C@H](CC1CCN([*:3])CC1)N[*:1])[*:2]; DOTA = O=C(O)CN1CCN(CC(=O)O)CCN(CC(=O)*)CCN(CC(=O)O)CC1; 2Nal = N[C@@H](Cc1ccc2ccccc2c1)C(=O)O; Lauroyl = CCCCCCCCCCCC(=O)*

Columns and labels:
CT26.DLL3 cells [1] = assay: Internalization (out of bound fraction) of [177Lu]Lu-test peptide, CT26.DLL3 cells; assay type: cell-based; conditions: 1 hour at 37° C., glycine pH 2.5 wash
In short: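 [177Lu]Lu-peptide (labelled at 80 °C, pH ~5, 17-20 min) incubated with 5-25 million CT26.DLL3 cells in 1% PBSA, 0.8 μCi, 1 h at 37 °C. Surface-bound activity stripped twice with 50 mM glycine pH 2.5, 3 min; NaOH-solubilized cell activity gamma-counted as internalized fraction, binned ≤25%, 25-50%, >50%.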

CT26.DLL3 cells [2] = assay: Cell binding (total uptake) of [177Lu]Lu-test peptide, CT26.DLL3 cells; assay type: cell-based; conditions: 1 hour at 37° C.
In short: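 CT26.DLL3 cells (5–25 million/condition) in 1% PBSA incubated 1 h at 37°C with [177Lu]Lu-labelled peptide (0.8 μCi in 300 μL), radiolabelled at pH ~5, 80°C. Cells pelleted, washed twice with cold PBS+1% BSA; bound and unbound fractions gamma-counted, uptake binned as ≤25%, 25–50%, >50%.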

human DLL3 = biological target: T1, human DLL3 (Homo sapiens, UniProt Q9NYJ7); assay: Affinity determination by Surface Plasmon Resonance (SPR); assay type: binding; conditions: 25° C., biotinylated human DLL3 immobilized on streptavidin sensor chip, 1:1 binding model; read-out: SPR KD
T1 sequence (Q9NYJ7 27-618): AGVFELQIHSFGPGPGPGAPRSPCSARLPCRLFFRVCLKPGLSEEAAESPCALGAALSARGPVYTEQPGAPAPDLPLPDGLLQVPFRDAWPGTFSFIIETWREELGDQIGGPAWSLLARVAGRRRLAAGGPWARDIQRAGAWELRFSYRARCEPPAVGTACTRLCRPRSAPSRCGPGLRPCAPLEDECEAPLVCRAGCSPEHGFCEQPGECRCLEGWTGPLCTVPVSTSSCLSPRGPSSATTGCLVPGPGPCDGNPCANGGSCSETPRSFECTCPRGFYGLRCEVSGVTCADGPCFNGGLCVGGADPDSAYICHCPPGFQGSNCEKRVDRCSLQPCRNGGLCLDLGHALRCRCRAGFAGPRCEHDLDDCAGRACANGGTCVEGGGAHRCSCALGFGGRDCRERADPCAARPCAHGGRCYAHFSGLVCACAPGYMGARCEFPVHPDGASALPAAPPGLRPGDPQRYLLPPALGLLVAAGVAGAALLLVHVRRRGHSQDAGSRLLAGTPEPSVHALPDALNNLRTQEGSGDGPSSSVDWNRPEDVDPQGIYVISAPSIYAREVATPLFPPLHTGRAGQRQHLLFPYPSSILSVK
In short: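 Kinetic and affinity constants were derived by fitting sensorgrams to a 1:1 binding model. Graded compound concentrations flowed at 100 μL/minute in 20 mM phosphate running buffer with 2% DMSO over streptavidin-immobilized biotinylated human DLL3, reference-subtracted.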

SHP-77 cells [3] = assay: Internalization (out of bound fraction) of [177Lu]Lu-test peptide, SHP-77 cells; assay type: cell-based; conditions: SHP77 cells, 1 hour at 37° C., after 50 mM Glycine pH=2.5 wash
Procedure: [^177Lu]LuCl3 was received from venders in HCl solution. For every mCi of [^177Lu]LuCl3 added to the reaction vial (1.5 mL Eppendorf vial), ammonium acetate buffer (0.2 M, pH 4.9, 100 μL, containing 1% w/v ascorbic acid and 6% v/v ethanol) and peptide conjugate (1 nmol). A peptide conjugate of the present disclosure is also referred to herein as a “chelator-peptide”. The pH of the solution was determined to be approximately 5 by using pH strips. The reaction vial was incubated at 80° C., 700 RPM for 17-20 minutes. A sample from the reaction was analyzed by RP-HPLC using an Agilent Infinity II 1260 HPLC to determine reaction completion and radiochemical purity of [^177Lu]Lu-chelator-peptide. […]
Total uptake: Cells were incubated with 300 μL (0.8 μCi) of the incubation buffer (containing radiolabeled peptide [^177Lu] Lu-test peptide) for 1 hour at 37° C. […] The supernatant and washes were combined and counted together as “unbound fraction” in a gamma counter. The cells were then resuspended in 300 μL of 1% PBS+1% BSA and counted in the gamma counter as “bound fraction”.
Internalization: The resuspended cells in 300 μl of 1% PBSA and counted in the gamma counter as “bound fraction” were collected in 1.5 mL Eppendorf tube and pelleted. […] This was counted in the gamma counter as “internalized fraction”. […]

SHP-77 tumors = assay: Ex vivo biodistribution of radiolabeled peptides in nude mice bearing SHP-77 tumors; conditions: [177Lu]Lu labelling, nude mice bearing SHP-77 tumors (n = 3), 24 hours post-injection
In short: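 Nude mice bearing SHP-77 xenografts (200-400 mm^3) or tumor-naïve mice (5-7 weeks) received an intravenous tail-vein bolus of [^177Lu]Lu-peptide and were euthanized at pre-set time points. Tissues were weighed and gamma-counted, with counts decay-corrected to injection time. Values are % IA/g per tissue from the injected activity of each mouse.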

SHP-77 cells [4] = assay: Cell binding (total uptake) of [177Lu]Lu-test peptide, SHP-77 cells; assay type: cell-based; conditions: SHP77 cells, 1 hour at 37° C., bound fraction
Procedure: [^177Lu]LuCl3 was received from venders in HCl solution. For every mCi of [^177Lu]LuCl3 added to the reaction vial (1.5 mL Eppendorf vial), ammonium acetate buffer (0.2 M, pH 4.9, 100 μL, containing 1% w/v ascorbic acid and 6% v/v ethanol) and peptide conjugate (1 nmol). A peptide conjugate of the present disclosure is also referred to herein as a “chelator-peptide”. The pH of the solution was determined to be approximately 5 by using pH strips. The reaction vial was incubated at 80° C., 700 RPM for 17-20 minutes. A sample from the reaction was analyzed by RP-HPLC using an Agilent Infinity II 1260 HPLC to determine reaction completion and radiochemical purity of [^177Lu]Lu-chelator-peptide. HPLC conditions: Waters XBridge BEH C18 Column, 130 Å, 3.5 um, 4.6 mm×250 mm; mobile phase: Solvent A=water (with 0.1% formic acid), solvent B=acetonitrile (with 0.1% formic acid). Gradients: 25-45% B in 10 minutes, 45-65% B in 12 minutes, 65-90% in 6 minutes at a flow rate of 0.5 mL/minute. Required amounts of the product was formulated in 1% PBSA for cell studies.
The study was conducted using SHP-77, CT26.WT, and CT26.DLL3 cells (Table 7) Adherent cell studies: The cells were cultured in appropriate culture media (20 mL) in tissue culture treated T150 flasks at 37° C. and 5% CO2. Adherent cells were detached (60-70% confluent) using 5 mL Versene at 37° C. for 3 minutes. After confirming the viability using countess and count of detached cells using Trypan blue, the cells were centrifuged at 4° C. for 5 minutes (1,000 rpm). The cell pellet obtained was washed once with PBS and resuspended in 1% PBSA to obtain the desired cell concentration (5-25 million cells/mL).
Suspension cell studies: The cells were cultured in appropriate culture media (20 mL) in tissue culture treated T150 flasks at 37° C. and 5% CO2. After confirming the viability and count of detached cells using Trypan blue, the cells were centrifuged at 4° C. for 5 minutes (1,000 rpm). The cell pellet obtained was washed once with PBS and resuspended in 1% PBSA to obtain the desired cell concentration (5-25 million cells/mL).
Cell numbers used for the assay were in the range of 5 million cells/condition −25 million cells/condition.
Total uptake: Cells were incubated with 300 μL (0.8 μCi) of the incubation buffer (containing radiolabeled peptide [^177Lu] Lu-test peptide) for 1 hour at 37° C. (Table 8). Post incubation, the cells were pelleted and washed 2 times using cold PBS+1% BSA. The supernatant and washes were combined and counted together as “unbound fraction” in a gamma counter. The cells were then resuspended in 300 μL of 1% PBS+1% BSA and counted in the gamma counter as “bound fraction”.
In these Tables, “A” represents %≤25; “B” represents 25<%≤50; “C” represents %>50.

## CCCCCCCCCCCC(=O)NCCCC[C@@H]1NC(=O)[C@H](Cc2ccc3ccccc3c2)NC(=O)[C@H](CC(N)=O)NC(=O)[C@H](CC2CCNCC2)NC(=O)[C@@H](NC(=O)[C@@H](NC(=O)[C@@H](NC(=O)[C@H](Cc2c[nH]c3ccccc23)NC(C)=O)[C@@H](C)O)[C@@H](C)CC)CSSC[C@@H](C(=O)N[C@@H](Cc2c[nH]c3ccccc23)C(=O)N2CCC[C@H]2C(=O)N[C@H](CCCCNC(=O)CN2CCN(CC(=O)O)CCN(CC(=O)O)CCN(CC(=O)O)CC2)C(N)=O)NC(=O)[C@H](CC(=O)O)NC1=O [compound 326, Ac-W-T-I-C(3)-[3-(4-piperidinyl)-Ala]-N-(2Nal)-K(C12)-D-C(3)-W-P-[D-Lys(DOTA)]-NH2] (Ac-WTIC[Ala(piperidin-4-yl)]N[2Nal]K(Lauroyl)DCWP[dK](DOTA)-NH2; disulfide 4-10)
CT26.DLL3 cells [1]
  % Internalization (out of bound fraction): C (%>50)
CT26.DLL3 cells [2]
  % Binding: A (%≤25)
Human DLL3
  Kd: 1 to 10 nM
SHP-77 cells [3]
  % Internalization (out of bound fraction): B (25<%≤50)
SHP-77 tumors; kidney
  kidney uptake (% IA/g): C (0 < % IA/g ≤ 10 in kidney)
SHP-77 tumors; tumor
  tumor uptake (% IA/g): A (0 < % IA/g ≤ 5 in tumor)
SHP-77 cells [4]
  % Binding: A (%≤25)
